Literature values in US11844783B2, “Formulations of bendamustine” (Eagle Pharmaceuticals, Inc., priority 2010, dated 2023).

Conditions: liquid form

For `Cn1c(CCCC(=O)O)nc2cc(N(CCCl)CCCl)ccc21` [bendamustine, Bendamustine], the stability in water is given as “measured in hours”.
